Test results as given in ChEMBL document CHEMBL5465560, “Selectivity Literature for EUbOPEN Chemogenomic Library” (2024).

How the values were obtained:
[1] = biological target: Serine/threonine-protein kinase PAK 4 (Homo sapiens, UniProt O96013); test: Selectivity interaction (KinomeScan (DiscoverX)) EUB0000229b PAK4; details: at 10 µM
[2] = biological target: Microtubule-associated serine/threonine-protein kinase 1 (Homo sapiens) (UniProt Q9Y2H9); test: Selectivity interaction (KinomeScan (DiscoverX)) EUB0001079a MAST1; details: at 1 µM
[3] = biological target: CREB-binding protein (Homo sapiens, UniProt Q92793); test: Selectivity interaction (Human bromodomain panel (DSF assay)) EUB0000233b CREBBP
[4] = system: Mast/stem cell growth factor receptor Kit (Homo sapiens), P10721 [A829P]; details: at 10 µM
[5] = biological target: T1, Activin receptor type-1 (Homo sapiens) (UniProt Q04771); test: Selectivity interaction (Kinase panel (Invitrogen)) EUB0000639a ACVR1; details: at 200 nM
T1 sequence (whole entry): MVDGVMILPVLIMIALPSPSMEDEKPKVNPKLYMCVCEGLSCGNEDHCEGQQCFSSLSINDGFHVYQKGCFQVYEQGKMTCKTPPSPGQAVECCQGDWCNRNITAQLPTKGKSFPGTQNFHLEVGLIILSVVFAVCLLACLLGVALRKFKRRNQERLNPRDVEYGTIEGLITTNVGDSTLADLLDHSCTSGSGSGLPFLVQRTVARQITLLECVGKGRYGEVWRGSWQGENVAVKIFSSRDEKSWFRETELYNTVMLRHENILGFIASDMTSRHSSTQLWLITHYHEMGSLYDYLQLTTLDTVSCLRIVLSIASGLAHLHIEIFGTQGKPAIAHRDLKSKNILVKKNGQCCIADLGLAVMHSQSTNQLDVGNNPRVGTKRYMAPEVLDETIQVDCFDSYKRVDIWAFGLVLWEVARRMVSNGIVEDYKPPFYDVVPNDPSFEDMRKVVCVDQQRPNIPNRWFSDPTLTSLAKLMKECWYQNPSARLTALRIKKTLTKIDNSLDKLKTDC

[6] = biological target: Cyclin-dependent kinase 2/cyclin A (Homo sapiens) (UniProt P24941+P20248+P78396); test: Selectivity interaction (SelectScreen profiling (Invitrogen)) EUB0000607a CDK2; type: protein-complex assay; details: at 2 µM
[7] = biological target: Serine/threonine-protein kinase PAK 2 (Homo sapiens) (UniProt Q13177); test: Selectivity interaction (SelectScreen profiling (Invitrogen)) EUB0000607a PAK2; details: at 2 µM
[8] = biological target: Serine/threonine-protein kinase mTOR (Homo sapiens, UniProt P42345); test: Selectivity interaction (KinomeScan (DiscoverX)) EUB0000607a MTOR; details: at 10 µM
[9] = Selectivity interaction (KinomeScan (DiscoverX)) EUB0001049a CDK2H; details: at 1 µM
[10] = biological target: Bone morphogenetic protein receptor type-1A (Homo sapiens, UniProt P36894); test: Selectivity interaction (KinomeScan (DiscoverX)) EUB0000595a BMPR1A; details: at 10 µM
[11] = biological target: T2, Ephrin type-A receptor 3 (Homo sapiens) (UniProt P29320); test: Selectivity interaction (KinomeScan (DiscoverX)) EUB0000045b EPHA3
T2 sequence (whole entry): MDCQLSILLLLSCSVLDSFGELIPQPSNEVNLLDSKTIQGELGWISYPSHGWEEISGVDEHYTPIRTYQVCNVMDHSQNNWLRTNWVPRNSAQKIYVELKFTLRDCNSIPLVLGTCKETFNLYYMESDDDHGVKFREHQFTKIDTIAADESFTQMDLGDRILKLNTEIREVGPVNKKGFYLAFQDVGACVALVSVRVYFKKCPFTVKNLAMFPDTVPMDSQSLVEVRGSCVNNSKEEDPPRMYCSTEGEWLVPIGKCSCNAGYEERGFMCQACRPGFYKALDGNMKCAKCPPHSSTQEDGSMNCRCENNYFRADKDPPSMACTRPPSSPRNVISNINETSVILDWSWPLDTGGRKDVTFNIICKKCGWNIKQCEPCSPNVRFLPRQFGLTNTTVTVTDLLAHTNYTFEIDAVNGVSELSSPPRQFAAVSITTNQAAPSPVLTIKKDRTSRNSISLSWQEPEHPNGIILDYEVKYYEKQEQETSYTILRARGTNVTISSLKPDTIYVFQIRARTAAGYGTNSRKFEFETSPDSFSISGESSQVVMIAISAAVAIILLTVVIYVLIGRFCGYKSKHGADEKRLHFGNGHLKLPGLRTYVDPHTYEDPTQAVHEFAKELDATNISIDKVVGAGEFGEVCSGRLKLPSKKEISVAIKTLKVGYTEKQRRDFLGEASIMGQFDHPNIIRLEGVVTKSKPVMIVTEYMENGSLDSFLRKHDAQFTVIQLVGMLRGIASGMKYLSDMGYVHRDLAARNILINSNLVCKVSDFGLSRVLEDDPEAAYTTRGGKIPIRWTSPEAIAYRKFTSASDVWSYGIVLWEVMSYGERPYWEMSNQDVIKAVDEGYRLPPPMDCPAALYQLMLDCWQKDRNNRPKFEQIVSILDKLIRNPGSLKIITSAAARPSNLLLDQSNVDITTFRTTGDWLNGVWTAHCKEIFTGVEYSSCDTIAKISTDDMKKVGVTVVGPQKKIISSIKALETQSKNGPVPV

[12] = biological target: T3, Mitogen-activated protein kinase 12 (Homo sapiens) (UniProt P53778); test: Selectivity interaction (KinomeScan (DiscoverX)) EUB0000618a MAPK12; details: at 10 µM
T3 sequence (whole entry): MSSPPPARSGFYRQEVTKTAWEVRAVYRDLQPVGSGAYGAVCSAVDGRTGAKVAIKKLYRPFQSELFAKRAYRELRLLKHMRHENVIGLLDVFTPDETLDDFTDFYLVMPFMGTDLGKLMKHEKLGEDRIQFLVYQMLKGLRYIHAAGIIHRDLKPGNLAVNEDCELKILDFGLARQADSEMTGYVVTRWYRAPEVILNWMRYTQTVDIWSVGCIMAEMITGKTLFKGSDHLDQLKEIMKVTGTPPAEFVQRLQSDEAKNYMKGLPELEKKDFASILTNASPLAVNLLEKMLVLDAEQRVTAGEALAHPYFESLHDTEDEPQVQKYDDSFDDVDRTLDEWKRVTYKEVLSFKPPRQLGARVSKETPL

[13] = biological target: eIF-2-alpha kinase GCN2 (Homo sapiens) (UniProt Q9P2K8); test: Selectivity interaction (ActivX KiNativ screen (ex vivo kinase selectivity in human PBMCs)) EUB0001619a EIF2AK4; type: cell-based; details: PBMC, at 1 µM
[14] = biological target: Serine/threonine-protein kinase 38 (Homo sapiens) (UniProt Q15208); test: Selectivity interaction (ActivX KiNativ screen (ex vivo kinase selectivity in human PBMCs)) EUB0001619a STK38; type: cell-based; details: PBMC, at 1 µM
Sequence of Serine/threonine-protein kinase 38 (Homo sapiens) (Q15208 2-465 limits assumed): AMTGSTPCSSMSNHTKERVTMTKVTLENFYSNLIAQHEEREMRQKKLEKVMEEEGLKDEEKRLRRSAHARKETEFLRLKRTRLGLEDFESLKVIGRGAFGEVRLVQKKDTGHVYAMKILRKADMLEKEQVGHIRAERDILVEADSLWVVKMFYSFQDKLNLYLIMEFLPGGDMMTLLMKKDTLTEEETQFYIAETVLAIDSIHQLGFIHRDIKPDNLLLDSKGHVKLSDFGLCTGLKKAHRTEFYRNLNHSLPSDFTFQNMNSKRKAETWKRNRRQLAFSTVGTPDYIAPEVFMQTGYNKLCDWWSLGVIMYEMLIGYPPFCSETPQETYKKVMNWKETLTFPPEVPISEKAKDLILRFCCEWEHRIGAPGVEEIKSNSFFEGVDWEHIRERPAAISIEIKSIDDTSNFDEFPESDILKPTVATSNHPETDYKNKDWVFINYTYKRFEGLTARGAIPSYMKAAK

Sequence of CREB-binding protein (Q92793 2-2442 limits assumed): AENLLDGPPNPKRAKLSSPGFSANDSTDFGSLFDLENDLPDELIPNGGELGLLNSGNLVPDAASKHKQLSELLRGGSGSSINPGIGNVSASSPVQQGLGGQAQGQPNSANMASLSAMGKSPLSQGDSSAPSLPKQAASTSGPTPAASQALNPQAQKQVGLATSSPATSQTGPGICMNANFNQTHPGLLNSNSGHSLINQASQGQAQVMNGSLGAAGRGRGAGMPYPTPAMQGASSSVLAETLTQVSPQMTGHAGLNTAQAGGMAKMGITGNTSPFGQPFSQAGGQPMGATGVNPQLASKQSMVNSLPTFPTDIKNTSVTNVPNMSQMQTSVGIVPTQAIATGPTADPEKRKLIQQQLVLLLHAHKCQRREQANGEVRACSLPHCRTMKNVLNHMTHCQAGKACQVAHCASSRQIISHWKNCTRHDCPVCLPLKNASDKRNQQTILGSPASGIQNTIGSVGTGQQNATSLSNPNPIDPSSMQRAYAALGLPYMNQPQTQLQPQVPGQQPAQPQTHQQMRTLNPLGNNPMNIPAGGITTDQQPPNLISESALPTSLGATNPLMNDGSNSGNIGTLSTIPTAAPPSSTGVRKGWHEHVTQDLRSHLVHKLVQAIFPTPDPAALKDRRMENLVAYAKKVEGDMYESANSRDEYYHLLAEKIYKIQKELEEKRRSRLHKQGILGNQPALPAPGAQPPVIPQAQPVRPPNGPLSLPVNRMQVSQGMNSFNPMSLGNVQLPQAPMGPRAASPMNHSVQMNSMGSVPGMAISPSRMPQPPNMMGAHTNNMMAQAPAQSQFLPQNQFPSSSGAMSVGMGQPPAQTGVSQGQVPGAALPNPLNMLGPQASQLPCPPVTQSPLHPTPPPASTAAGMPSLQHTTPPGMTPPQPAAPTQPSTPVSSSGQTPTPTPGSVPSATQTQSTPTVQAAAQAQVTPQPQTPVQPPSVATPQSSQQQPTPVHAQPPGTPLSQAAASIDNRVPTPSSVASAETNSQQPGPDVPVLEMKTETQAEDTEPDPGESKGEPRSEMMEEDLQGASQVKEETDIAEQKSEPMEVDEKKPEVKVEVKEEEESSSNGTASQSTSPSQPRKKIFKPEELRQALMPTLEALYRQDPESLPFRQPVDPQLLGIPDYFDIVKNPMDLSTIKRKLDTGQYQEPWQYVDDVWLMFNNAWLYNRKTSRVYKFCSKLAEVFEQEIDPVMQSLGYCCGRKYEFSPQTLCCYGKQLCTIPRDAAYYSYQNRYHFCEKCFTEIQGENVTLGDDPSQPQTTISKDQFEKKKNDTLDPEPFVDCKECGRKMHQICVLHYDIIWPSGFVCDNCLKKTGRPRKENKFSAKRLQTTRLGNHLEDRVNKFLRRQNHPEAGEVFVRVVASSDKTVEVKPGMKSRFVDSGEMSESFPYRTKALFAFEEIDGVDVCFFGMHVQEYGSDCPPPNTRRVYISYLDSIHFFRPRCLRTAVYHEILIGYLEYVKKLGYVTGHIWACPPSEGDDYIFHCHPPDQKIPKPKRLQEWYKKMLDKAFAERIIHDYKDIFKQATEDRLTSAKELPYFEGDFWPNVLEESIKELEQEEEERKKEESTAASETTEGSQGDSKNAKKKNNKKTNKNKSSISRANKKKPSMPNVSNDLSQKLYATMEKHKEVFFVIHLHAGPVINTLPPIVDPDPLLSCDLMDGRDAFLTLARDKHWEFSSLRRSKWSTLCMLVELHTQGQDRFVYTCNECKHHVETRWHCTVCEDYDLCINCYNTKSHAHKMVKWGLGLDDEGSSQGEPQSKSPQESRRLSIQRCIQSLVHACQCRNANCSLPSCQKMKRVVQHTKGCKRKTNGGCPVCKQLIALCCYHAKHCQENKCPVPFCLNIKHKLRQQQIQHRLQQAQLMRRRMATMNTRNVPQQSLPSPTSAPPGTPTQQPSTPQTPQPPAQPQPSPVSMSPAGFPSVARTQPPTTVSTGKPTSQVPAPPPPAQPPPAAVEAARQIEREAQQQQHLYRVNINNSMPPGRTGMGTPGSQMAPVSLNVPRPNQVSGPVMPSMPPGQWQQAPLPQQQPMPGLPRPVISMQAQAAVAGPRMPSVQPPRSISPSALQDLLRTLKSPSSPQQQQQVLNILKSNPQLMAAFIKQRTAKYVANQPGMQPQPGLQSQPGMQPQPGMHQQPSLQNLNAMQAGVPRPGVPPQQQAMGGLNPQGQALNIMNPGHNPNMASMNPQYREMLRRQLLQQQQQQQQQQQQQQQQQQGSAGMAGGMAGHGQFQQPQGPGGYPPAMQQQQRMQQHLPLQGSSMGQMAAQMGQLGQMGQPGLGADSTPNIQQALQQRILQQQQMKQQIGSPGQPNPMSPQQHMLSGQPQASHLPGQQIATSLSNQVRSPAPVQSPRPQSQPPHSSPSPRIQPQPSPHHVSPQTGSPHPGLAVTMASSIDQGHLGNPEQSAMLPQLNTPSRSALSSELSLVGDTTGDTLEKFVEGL
Sequence of Mast/stem cell growth factor receptor Kit (Homo sapiens), P10721 [A829P] (P10721 whole entry A829P): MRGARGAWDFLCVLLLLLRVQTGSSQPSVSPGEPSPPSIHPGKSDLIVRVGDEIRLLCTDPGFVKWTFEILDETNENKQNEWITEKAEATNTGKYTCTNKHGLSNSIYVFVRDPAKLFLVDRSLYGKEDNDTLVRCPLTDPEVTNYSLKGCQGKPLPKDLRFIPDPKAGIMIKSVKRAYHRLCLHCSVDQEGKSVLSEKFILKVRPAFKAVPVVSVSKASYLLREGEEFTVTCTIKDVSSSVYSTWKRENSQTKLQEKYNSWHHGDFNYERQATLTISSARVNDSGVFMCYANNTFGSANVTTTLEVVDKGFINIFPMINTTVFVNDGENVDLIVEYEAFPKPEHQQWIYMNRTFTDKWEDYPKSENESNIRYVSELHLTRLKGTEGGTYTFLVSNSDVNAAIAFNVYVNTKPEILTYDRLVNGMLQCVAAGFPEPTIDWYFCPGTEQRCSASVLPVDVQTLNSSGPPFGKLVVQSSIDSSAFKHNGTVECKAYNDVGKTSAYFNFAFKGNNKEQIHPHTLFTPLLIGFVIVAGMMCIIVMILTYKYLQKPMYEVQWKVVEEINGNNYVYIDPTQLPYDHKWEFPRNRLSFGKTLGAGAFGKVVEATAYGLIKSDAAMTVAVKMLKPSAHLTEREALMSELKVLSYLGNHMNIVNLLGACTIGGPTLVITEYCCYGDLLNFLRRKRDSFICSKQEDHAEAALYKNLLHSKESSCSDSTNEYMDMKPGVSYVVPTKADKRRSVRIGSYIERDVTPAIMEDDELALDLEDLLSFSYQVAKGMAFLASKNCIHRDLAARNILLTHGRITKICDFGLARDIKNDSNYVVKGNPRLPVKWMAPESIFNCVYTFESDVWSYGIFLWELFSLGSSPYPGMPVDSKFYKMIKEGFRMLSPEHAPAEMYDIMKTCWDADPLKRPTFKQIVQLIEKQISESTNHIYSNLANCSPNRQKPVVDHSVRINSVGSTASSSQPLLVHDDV
Sequence of Bone morphogenetic protein receptor type-1A (P36894 whole entry): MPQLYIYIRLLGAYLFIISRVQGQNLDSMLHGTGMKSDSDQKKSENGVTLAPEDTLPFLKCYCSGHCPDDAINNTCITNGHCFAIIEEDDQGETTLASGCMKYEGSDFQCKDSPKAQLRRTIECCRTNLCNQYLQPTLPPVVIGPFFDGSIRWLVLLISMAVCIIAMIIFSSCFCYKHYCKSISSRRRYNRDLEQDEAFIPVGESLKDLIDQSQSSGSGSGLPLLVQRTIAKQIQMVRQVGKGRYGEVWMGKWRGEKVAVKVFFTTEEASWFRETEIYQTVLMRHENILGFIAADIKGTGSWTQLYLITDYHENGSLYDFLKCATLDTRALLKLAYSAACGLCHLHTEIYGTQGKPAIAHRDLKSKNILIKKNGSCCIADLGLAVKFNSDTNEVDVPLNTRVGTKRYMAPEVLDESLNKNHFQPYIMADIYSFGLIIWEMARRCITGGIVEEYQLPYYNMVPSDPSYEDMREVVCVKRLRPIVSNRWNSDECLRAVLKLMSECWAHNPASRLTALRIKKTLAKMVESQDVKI
Sequence of Serine/threonine-protein kinase PAK 4 (O96013 whole entry, looked up): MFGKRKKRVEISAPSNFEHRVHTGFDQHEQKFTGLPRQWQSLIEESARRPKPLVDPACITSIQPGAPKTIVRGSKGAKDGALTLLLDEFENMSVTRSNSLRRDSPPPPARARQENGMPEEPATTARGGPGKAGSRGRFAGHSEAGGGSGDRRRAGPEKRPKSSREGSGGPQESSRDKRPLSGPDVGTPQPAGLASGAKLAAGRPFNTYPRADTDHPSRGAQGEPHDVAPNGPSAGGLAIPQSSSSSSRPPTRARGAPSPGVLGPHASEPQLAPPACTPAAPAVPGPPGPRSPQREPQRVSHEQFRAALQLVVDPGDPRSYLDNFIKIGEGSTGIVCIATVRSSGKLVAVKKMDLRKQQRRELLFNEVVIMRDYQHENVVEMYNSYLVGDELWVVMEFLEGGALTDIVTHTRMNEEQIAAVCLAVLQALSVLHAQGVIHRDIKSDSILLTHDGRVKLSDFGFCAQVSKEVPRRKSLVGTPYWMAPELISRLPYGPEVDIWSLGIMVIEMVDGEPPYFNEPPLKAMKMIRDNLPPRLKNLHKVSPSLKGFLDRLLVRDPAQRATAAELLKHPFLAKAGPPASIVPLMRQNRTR

Structure (SMILES): COc1cc(N(C)c2ccnc3ccc(C(F)(F)F)cc23)cc(OC)c1OC
- % binding [1]: 81%

Structure (SMILES): Nc1cnc(N2CCc3cc(S(=O)(=O)Nc4c(F)cc(Cl)cc4F)cc(N4CCCC4=O)c32)nc1 [TP-020n]
- % of control [2]: 97%

Structure (SMILES): CN(C)CCCOc1ccc(-c2cc(NCCCn3cccn3)nc(S(C)(=O)=O)n2)cc1
- dTM [3]: < 2 K

Structure (SMILES): Cc1cc([C@@H](C)Nc2ccccc2C(=O)O)c2nc(N3CCOCC3)cc(=O)n2c1 [AZD-6482]
- % of control [4]: 100%

Structure (SMILES): CC[C@@H]1[C@H](F)C(=O)N[C@@H]1COc1nccc2cc(C(N)=O)c(OC)cc12 [ZIMLOVISERTIB]
- % of inhibition [5]: 25.7%

Structure (SMILES): CNC(=O)Nc1ccc(-c2nc(N3CC4CCC(C3)O4)c3cnn(C4CCC5(CC4)OCCO5)c3n2)cc1
- % of inhibition [6]: 0%
- % of inhibition [7]: 15%
- % of control [8]: 5.7%

Structure (SMILES): COc1cc(Nc2nc(C)cc(-c3cnn4nc(OC)ccc34)n2)cc(C(F)(F)F)c1
- % of control [9]: 100%

Structure (SMILES): COCC(=O)NC/C=C/c1ccc2ncnc(Nc3ccc(Oc4ccc(C)nc4)c(C)c3)c2c1 [CP-724714]
- % of control [10]: 100%

Structure (SMILES): C=CC(=O)Nc1cc(-n2c(=O)ccc3cnc4ccc(-c5ccc(NS(C)(=O)=O)cc5)cc4c32)ccc1C
- % of control ([11]; at 1 µM): 89%
- % of control ([11]; at 10 µM): 92%

Structure (SMILES): O[C@H]1CC[C@H](Nc2ncc3nc(Nc4c(F)cc(F)cc4F)n([C@H]4CCOC4)c3n2)CC1
- % of control [12]: 80%

Structure (SMILES): N#Cc1cccc(-c2c[nH]c3ncnc(N4CCOCC4)c23)c1
- % of inhibition [13]: 1%
- % of inhibition [14]: 4%
